According to US9949995B2, “Compositions and methods of treating of bacterial infections with β-lactamase inhibitors” (priority 2015, dated 2018):
Blank lines part the entries; values can stand above or below the compound they belong to.

Assays:
[1] = target: KPC-2 (Klebsiella pneumoniae, UniProt Q9F663); assay: IC50 assay, nitrocefin hydrolysis, KPC-2 (SBL); type: biochemical; details: nitrocefin 50 μM, 5 min pre-incubation at 25° C.; 10 mM phosphate-buffered saline, pH 7.4
Method: (§1) IC50 assays were performed to determine compound ability to inhibit enzyme.

[2] = target: VIM-2 (Escherichia coli, UniProt Q5U7L7); assay: IC50 assay, nitrocefin hydrolysis, VIM-2 (MBL); type: biochemical; details: nitrocefin 50 μM, 5 min pre-incubation at 25° C.; 10 mM HEPES pH 7.5, 200 mM NaCl, 50 uM Zn2SO4, 50 ug/ml BSA
Method: as §1

[3] = target: PDC-3 (Pseudomonas aeruginosa, UniProt P24735, T105A); assay: IC50 assay, nitrocefin hydrolysis, PDC-3 (SBL); type: biochemical
Sequence of PDC-3 (P24735 27-397 T105A): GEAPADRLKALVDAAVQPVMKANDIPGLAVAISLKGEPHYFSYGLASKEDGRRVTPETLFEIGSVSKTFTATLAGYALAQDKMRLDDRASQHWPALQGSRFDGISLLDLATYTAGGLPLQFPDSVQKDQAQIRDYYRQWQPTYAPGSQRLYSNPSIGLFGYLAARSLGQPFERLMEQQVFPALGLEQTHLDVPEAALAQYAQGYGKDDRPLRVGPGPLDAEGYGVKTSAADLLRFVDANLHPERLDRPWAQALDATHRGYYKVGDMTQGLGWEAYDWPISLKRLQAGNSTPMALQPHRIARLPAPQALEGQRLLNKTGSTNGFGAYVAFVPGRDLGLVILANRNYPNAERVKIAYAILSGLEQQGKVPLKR
Method: as §1

[4] = target: OXA-23 (Acinetobacter baumannii, UniProt Q9L4P2); assay: IC50 assay, nitrocefin hydrolysis, OXA-23 (SBL); type: biochemical; details: nitrocefin 50 μM, 5 min pre-incubation at 25° C.; 50 mM Na Phosphate buffer, pH 7.2, 20 mM Na bicarbonate
Sequence of OXA-23 (Q9L4P2 18-273): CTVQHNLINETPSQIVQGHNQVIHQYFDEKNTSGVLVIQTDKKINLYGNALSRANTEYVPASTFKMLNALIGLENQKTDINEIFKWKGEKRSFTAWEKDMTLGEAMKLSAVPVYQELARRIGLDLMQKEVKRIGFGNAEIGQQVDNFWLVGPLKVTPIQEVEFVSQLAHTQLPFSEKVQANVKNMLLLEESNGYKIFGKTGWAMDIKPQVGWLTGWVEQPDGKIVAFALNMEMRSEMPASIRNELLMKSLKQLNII
Method: as §1

[5] = target: VIM-24 (Escherichia coli, UniProt Q5U7L7, R205L); assay: IC50 assay, nitrocefin hydrolysis, VIM-24 (MBL); type: biochemical
Method: as §1

[6] = target: ADC-7 (Acinetobacter baumannii, UniProt Q6DRA1); assay: IC50 assay, nitrocefin hydrolysis, ADC-7 (SBL); type: biochemical; details: nitrocefin 50 μM, 5 min pre-incubation at 25° C.; 10 mM phosphate-buffered saline, pH 7.4
Method: as §1

[7] = target: NDM-1 (Klebsiella pneumoniae, UniProt C7C422); assay: IC50 assay, nitrocefin hydrolysis, NDM-1 (MBL); type: biochemical; details: nitrocefin 50 μM, 5 min pre-incubation at 25° C.; 10 mM HEPES pH 7.5, 200 mM NaCl, 50 uM Zn2SO4, 50 ug/ml BSA
Sequence of NDM-1 (C7C422 29-270, looked up): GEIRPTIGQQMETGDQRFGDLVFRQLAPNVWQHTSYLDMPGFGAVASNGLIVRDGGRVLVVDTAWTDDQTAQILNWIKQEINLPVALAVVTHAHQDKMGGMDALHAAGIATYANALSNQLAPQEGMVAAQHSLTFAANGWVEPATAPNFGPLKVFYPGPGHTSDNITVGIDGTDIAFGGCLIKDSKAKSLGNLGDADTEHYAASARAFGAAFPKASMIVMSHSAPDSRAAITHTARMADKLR
Method: as §1

[8] = target: IMP-1 (Serratia marcescens, UniProt P52699); assay: IC50 assay, nitrocefin hydrolysis, IMP-1 (MBL); type: biochemical; details: nitrocefin 50 μM, 5 min pre-incubation at 25° C.; 10 mM HEPES pH 7.5, 200 mM NaCl, 50 uM Zn2SO4, 50 ug/ml BSA
Sequence of IMP-1 (P52699 19-246, looked up): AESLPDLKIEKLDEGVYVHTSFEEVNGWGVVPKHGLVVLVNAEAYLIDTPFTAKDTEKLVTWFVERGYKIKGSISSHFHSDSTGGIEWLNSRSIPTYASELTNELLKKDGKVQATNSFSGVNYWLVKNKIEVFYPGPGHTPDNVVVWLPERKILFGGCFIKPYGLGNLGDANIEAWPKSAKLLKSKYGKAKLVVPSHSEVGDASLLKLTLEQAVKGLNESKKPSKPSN
Method: as §1

Sequence of KPC-2 (Q9F663 25-293, looked up): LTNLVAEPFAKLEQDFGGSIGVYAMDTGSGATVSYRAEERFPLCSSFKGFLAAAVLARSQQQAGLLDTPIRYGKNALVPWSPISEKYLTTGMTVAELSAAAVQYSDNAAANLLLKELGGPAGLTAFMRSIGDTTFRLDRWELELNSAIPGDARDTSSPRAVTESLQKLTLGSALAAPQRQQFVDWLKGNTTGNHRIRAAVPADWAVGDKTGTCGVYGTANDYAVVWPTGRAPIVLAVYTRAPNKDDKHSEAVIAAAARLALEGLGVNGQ

melting point: 120 to 122 °C (dec.)
Structure (SMILES): O=C(O)c1cn([C@@H](Cc2ccccc2)B(O)O)nn1

melting point: 151 to 153 °C (dec.)
Structure (SMILES): OB(O)[C@H](Cc1ccccc1)n1cc(-c2ccccc2)nn1

melting point: 141 to 143 °C (dec.)
Structure (SMILES): OB(O)[C@H](Cc1ccccc1)n1cc(-c2ccsc2)nn1

melting point: 113 to 115 °C (dec.)
Structure (SMILES): OB(O)[C@H](Cc1ccccc1)n1cc(COc2ccccc2)nn1

melting point: 108 to 110 °C (dec.)
Structure (SMILES): CCOC(=O)c1cn([C@@H](Cc2cccc(C(=O)O)c2)B(O)O)nn1

melting point: 88 to 90 °C (dec.)
Structure (SMILES): O=C(O)c1cccc(C[C@@H](B(O)O)n2cc(-c3ccccc3)nn2)c1

melting point: 185 to 187 °C (dec.)
Structure (SMILES): O=C(O)c1cccc(C[C@@H](B(O)O)n2cc(-c3ccsc3)nn2)c1

melting point: 123 to 125 °C (dec.)
Structure (SMILES): CCOC(=O)c1cn(CB(O)O)nn1

melting point: 122 to 124 °C (dec.)
Structure (SMILES): OB(O)Cn1cc(-c2ccccc2)nn1

melting point: 170 to 172 °C (dec.)
Structure (SMILES): OB(O)Cn1cc(-c2ccsc2)nn1

melting point: 128 to 131 °C (dec.)
Structure (SMILES): OB(O)Cn1cc(COc2ccccc2)nn1

Structure (SMILES): Cc1ccc(S(=O)(=O)NCc2cn(CB(O)O)nn2)cc1 [Cmp 1a]
IC50 [1]: 1.3 ± 0.1 µM | IC50 [2]: > 100 µM | IC50 [3]: 9 ± 1 µM | IC50 [4]: > 100 µM | IC50 [5]: > 100 µM | IC50 [6]: 24 ± 3 µM | IC50 [7]: > 100 µM | IC50 [8]: > 100 µM

Structure (SMILES): O=C(NCc1cn(CB(O)O)nn1)c1ccccc1 [Cmp 1c]
IC50 [1]: 10.8 ± 1.5 µM | IC50 [2]: 55 ± 5 µM | IC50 [3]: 26 ± 3 µM | IC50 [4]: > 100 µM | IC50 [5]: > 100 µM | IC50 [6]: 23 ± 3 µM | IC50 [7]: > 100 µM | IC50 [8]: > 100 µM

Structure (SMILES): O=C(Cc1ccccc1)NCc1cn(CB(O)O)nn1 [Cmp 1d]
IC50 [1]: 12 ± 1 µM | IC50 [2]: 92 ± 9 µM | IC50 [3]: 23 ± 3 µM | IC50 [4]: > 100 µM | IC50 [5]: > 100 µM | IC50 [6]: 39 ± 4 µM | IC50 [7]: > 100 µM | IC50 [8]: > 100 µM

Structure (SMILES): O=C(NCc1cn(CB(O)O)nn1)Nc1ccccc1 [Cmp 1e]
IC50 [1]: 5.2 ± 0.2 µM | IC50 [2]: 39 ± 4 µM | IC50 [3]: 10 ± 1 µM | IC50 [4]: > 100 µM | IC50 [5]: > 100 µM | IC50 [6]: 14 ± 2 µM | IC50 [7]: > 100 µM | IC50 [8]: > 100 µM
